Experimental data as given in ChEMBL document CHEMBL4038287, “Design, synthesis, and in vitro evaluation of novel antifungal triazoles” (2017).
≈ marks a conversion by molar mass, not a printed value.

Tests used:
Type in all cases: functional
[1] = test system: Nakaseomyces glabratus; experiment: Antifungal activity against Candida glabrata isolate 537 by micro-broth dilution method
[2] = test system: Trichophyton rubrum; experiment: Antifungal activity against Trichophyton rubrum isolate cmccftla by micro-broth dilution method
[3] = test system: Candida parapsilosis; experiment: Antifungal activity against Candida parapsilosis isolate 22019 by micro-broth dilution method; conditions: Lodderomyces parapsilosis
[4] = test system: Candida albicans; experiment: Antifungal activity against Candida albicans isolate SC5314 by micro-broth dilution method
[5] = test system: Nannizzia gypsea; experiment: Antifungal activity against Microsporum gypseum isolate cmccftla by micro-broth dilution method
[6] = test system: Aspergillus fumigatus; experiment: Antifungal activity against Aspergillus fumigatus isolate 7544 by micro-broth dilution method
[7] = test system: Cryptococcus neoformans; experiment: Antifungal activity against Cryptococcus neoformans isolate 32605 by micro-broth dilution method
[8] = test system: Candida albicans; experiment: Antifungal activity against Candida albicans isolate Y0109 by micro-broth dilution method

| Compound | MIC80 [1] [µg/mL] | MIC80 [2] [µg/mL] | MIC80 [3] [µg/mL] | MIC80 [4] [µg/mL] | MIC80 [5] [µg/mL] | MIC80 [6] [µg/mL] | MIC80 [7] [µg/mL] | MIC80 [8] [µg/mL] |
| --- | --- | --- | --- | --- | --- | --- | --- | --- |
| C[C@@H](c1cc(-c2c(F)cccc2F)no1)[C@](O)(Cn1cncn1)c1cc(F)ccc1F | 0.125 (≈ 0.289 µM) | 4 (≈ 9.25 µM) | 1 (≈ 2.31 µM) | 0.5 (≈ 1.16 µM) | > 8 | > 8 | 0.0625 (≈ 0.145 µM) | 1 (≈ 2.31 µM) |
| C[C@@H](c1cc(-c2c(F)cccc2F)no1)[C@](O)(Cn1cncn1)c1ccc(F)cc1F | 0.0625 (≈ 0.145 µM) | 0.125 (≈ 0.289 µM) | 0.125 (≈ 0.289 µM) | 0.125 (≈ 0.289 µM) | 1 (≈ 2.31 µM) | 2 (≈ 4.63 µM) | 0.125 (≈ 0.289 µM) | 0.0625 (≈ 0.145 µM) |
| C[C@@H](c1cc(-c2ccc(Cl)cc2)no1)[C@](O)(Cn1cncn1)c1ccc(F)cc1F | 0.125 (≈ 0.29 µM) | 0.125 (≈ 0.29 µM) | 0.125 (≈ 0.29 µM) | 0.125 (≈ 0.29 µM) | 1 (≈ 2.32 µM) | 4 (≈ 9.28 µM) | 0.125 (≈ 0.29 µM) | 0.0313 (≈ 0.0726 µM) |
| C[C@@H](c1cc(-c2ccc(F)cc2)no1)[C@](O)(Cn1cncn1)c1cc(F)ccc1F | 0.0625 (≈ 0.151 µM) | 1 (≈ 2.41 µM) | 0.25 (≈ 0.603 µM) | 0.125 (≈ 0.302 µM) | > 8 | > 8 | 0.0625 (≈ 0.151 µM) | 0.125 (≈ 0.302 µM) |
| C[C@@H](c1cc(-c2ccccc2F)no1)[C@](O)(Cn1cncn1)c1ccc(F)cc1F | 0.0313 (≈ 0.0755 µM) | 0.0625 (≈ 0.151 µM) | 0.125 (≈ 0.302 µM) | 0.0313 (≈ 0.0755 µM) | 0.5 (≈ 1.21 µM) | 2 (≈ 4.83 µM) | 0.125 (≈ 0.302 µM) | 0.0625 (≈ 0.151 µM) |
| Cc1ccc(-c2cc([C@H](C)[C@](O)(Cn3cncn3)c3ccc(F)cc3F)on2)cc1 | 0.25 (≈ 0.609 µM) | 0.25 (≈ 0.609 µM) | 0.125 (≈ 0.305 µM) | 0.0625 (≈ 0.152 µM) | 2 (≈ 4.87 µM) | 8 (≈ 19.5 µM) | 0.125 (≈ 0.305 µM) | 0.25 (≈ 0.609 µM) |
| C[C@@H](c1cc(-c2ccc(F)cc2F)no1)[C@](O)(Cn1cncn1)c1cc(F)ccc1F | 0.0625 (≈ 0.145 µM) | 1 (≈ 2.31 µM) | 1 (≈ 2.31 µM) | 0.25 (≈ 0.578 µM) | 4 (≈ 9.25 µM) | > 8 | 0.0625 (≈ 0.145 µM) | 0.125 (≈ 0.289 µM) |
| C[C@@H](c1cc(-c2ccc(F)cc2F)no1)[C@](O)(Cn1cncn1)c1ccc(F)cc1F | 0.0313 (≈ 0.0724 µM) | 0.0625 (≈ 0.145 µM) | 0.125 (≈ 0.289 µM) | 0.0625 (≈ 0.145 µM) | 0.5 (≈ 1.16 µM) | 2 (≈ 4.63 µM) | 0.125 (≈ 0.289 µM) | 0.0625 (≈ 0.145 µM) |
| C[C@@H](c1cc(-c2c(F)cc(F)cc2F)no1)[C@](O)(Cn1cncn1)c1ccc(F)cc1F | 0.0625 (≈ 0.139 µM) | 0.5 (≈ 1.11 µM) | 0.125 (≈ 0.278 µM) | 0.25 (≈ 0.555 µM) | 1 (≈ 2.22 µM) | 2 (≈ 4.44 µM) | 0.0625 (≈ 0.139 µM) | 0.125 (≈ 0.278 µM) |
| C[C@@H](c1cc(-c2ccc(C(F)(F)F)cc2)no1)[C@](O)(Cn1cncn1)c1ccc(F)cc1F | 1 (≈ 2.15 µM) | 2 (≈ 4.31 µM) | 1 (≈ 2.15 µM) | 0.5 (≈ 1.08 µM) | 2 (≈ 4.31 µM) | > 8 | 0.125 (≈ 0.269 µM) | 0.125 (≈ 0.269 µM) |
| C[C@@H](c1cc(-c2ccc(OC(F)(F)F)cc2)no1)[C@](O)(Cn1cncn1)c1ccc(F)cc1F | 0.0625 (≈ 0.13 µM) | 0.125 (≈ 0.26 µM) | 0.5 (≈ 1.04 µM) | 0.125 (≈ 0.26 µM) | 4 (≈ 8.33 µM) | 8 (≈ 16.7 µM) | 0.125 (≈ 0.26 µM) | 0.0313 (≈ 0.0652 µM) |
| C[C@@H](c1cc(-c2ccc(Cl)cc2F)no1)[C@](O)(Cn1cncn1)c1cc(F)ccc1F | 0.0313 (≈ 0.0697 µM) | 1 (≈ 2.23 µM) | 1 (≈ 2.23 µM) | 0.5 (≈ 1.11 µM) | 8 (≈ 17.8 µM) | > 8 | 0.125 (≈ 0.279 µM) | 0.25 (≈ 0.557 µM) |
| C[C@@H](c1cc(-c2ccc(Cl)c(Cl)c2)no1)[C@](O)(Cn1cncn1)c1ccc(F)cc1F | 0.25 (≈ 0.537 µM) | 0.5 (≈ 1.07 µM) | 0.5 (≈ 1.07 µM) | 0.25 (≈ 0.537 µM) | 4 (≈ 8.6 µM) | > 8 | 0.25 (≈ 0.537 µM) | 0.0625 (≈ 0.134 µM) |
| OC(Cn1cncn1)(Cn1cncn1)c1ccc(F)cc1F [FLUCONAZOLE] | 2 (≈ 6.53 µM) | 8 (≈ 26.1 µM) | 2 (≈ 6.53 µM) | 0.5 (≈ 1.63 µM) | 32 (≈ 104 µM) | > 64 | 0.5 (≈ 1.63 µM) | 0.25 (≈ 0.816 µM) |
| CC(=O)N1CCN(c2ccc(OCC3COC(Cn4ccnc4)(c4ccc(Cl)cc4Cl)O3)cc2)CC1 (stereo not drawn) [KETOCONAZOLE] | 0.0625 (≈ 0.118 µM) | 1 (≈ 1.88 µM) | 0.5 (≈ 0.941 µM) | 0.125 (≈ 0.235 µM) | 1 (≈ 1.88 µM) | 4 (≈ 7.53 µM) | 0.0625 (≈ 0.118 µM) | 0.25 (≈ 0.47 µM) |
| C[C@@H](c1nc(-c2ccc(C#N)cc2)cs1)[C@](O)(Cn1cncn1)c1ccc(F)cc1F [RAVUCONAZOLE] | 0.125 (≈ 0.286 µM) | 0.125 (≈ 0.286 µM) | 0.25 (≈ 0.571 µM) | 0.0625 (≈ 0.143 µM) | 1 (≈ 2.29 µM) | 2 (≈ 4.57 µM) | 0.125 (≈ 0.286 µM) | 0.0625 (≈ 0.143 µM) |
